Among the data in PubChem BioAssay AID212 (DTP/NCI, 2004) are T/C values, retold here.

Structures are written as SMILES. Where “and” joins values, the source holds several entries; their conditions need not be identical. Equal values may be shown once. Inconclusive results are not listed.

This assay concerns BDF1 mice, colon carcinoma 38 sc, T/C %. Put plainly: NCI In Vivo Anticancer Drug Screen. Data for tumor model Colon Carcinoma 38 (subcutaneous) in B6D2F1 (BDF1) mice. The method in brief: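 Mice with transplanted tumors are treated with compound or vehicle. Survival or tumor size is then measured in both groups. The ratio of treated to control gives the reported figure.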
The mark [1] stands for this setting: endpoint: median tumor weight (est.), dose: 12.5 mg/kg/injection, schedule: Q07DX002 (ip), vehicle: saline with Tween-80, higher = larger tumour.
Setting [2] is: endpoint: median tumor weight (est.), dose: 25.0 mg/kg/injection, schedule: Q07DX002 (ip), vehicle: saline with Tween-80, higher = larger tumour.
The mark [3] stands for this setting: endpoint: median tumor weight (est.), dose: 50.0 mg/kg/injection, schedule: Q07DX002 (ip), vehicle: saline with Tween-80, higher = larger tumour.
Setting [4] is: endpoint: median tumor weight (est.), dose: 400.0 mg/kg/injection, schedule: Q07DX002 (ip), vehicle: saline with Tween-80, higher = larger tumour.
The mark [5] stands for this setting: endpoint: median tumor weight (est.), dose: 400.0 mg/kg/injection, schedule: Q07DX002 (ip), vehicle: saline, higher = larger tumour.
Where [6] appears, read: endpoint: median tumor weight (est.), dose: 100.0 mg/kg/injection, schedule: Q07DX002 (ip), vehicle: saline with Tween-80, higher = larger tumour.

Take `Nc1nccc2c1ncn2C1OC(CO)C(O)C1O` (stereo unspecified): the T/C runs as follows: (endpoint: median tumor weight (est.), dose: 4.6 mg/kg/injection, schedule: Q03HX024 (ip), vehicle: saline with Tween-80, higher = larger tumour) 103 % of control; (endpoint: median tumor weight (est.), dose: 9.3 mg/kg/injection, schedule: Q03HX024 (ip), vehicle: saline with Tween-80, higher = larger tumour) 114 % of control; (endpoint: median tumor weight (est.), dose: 18.7 mg/kg/injection, schedule: Q03HX024 (ip), vehicle: saline with Tween-80, higher = larger tumour) 82 % of control and 92 % of control; (endpoint: median tumor weight (est.), dose: 75.0 mg/kg/injection, schedule: Q03HX024 (ip), vehicle: saline with Tween-80, higher = larger tumour) 93 % of control.

For `CCOC(=O)C1(c2ccccc2)C(=O)Oc2ccccc21` (stereo unspecified), the T/C reads like this: under setting [1], 94 % of control; under setting [2], 112 % of control and 87 % of control; under setting [3], 61 % of control; under setting [4], 107 % of control.

On to `COC(=O)c1ccoc1`, for which the T/C reads like this: (endpoint: median tumor weight (est.), dose: 25.0 mg/kg/injection, schedule: Q07DX002 (ip), vehicle: saline, higher = larger tumour) 105 % of control; (endpoint: median tumor weight (est.), dose: 50.0 mg/kg/injection, schedule: Q07DX002 (ip), vehicle: saline, higher = larger tumour) 94 % of control; (endpoint: median tumor weight (est.), dose: 200.0 mg/kg/injection, schedule: Q07DX002 (ip), vehicle: saline, higher = larger tumour) 118 % of control; under setting [5], 112 % of control.

Take `CC[C@@]1(O)C[C@H](OC2CC(N(C)C)C(OC3CC(O)C(OC4CCC(=O)C(C)O4)C(C)O3)C(C)O2)c2c(cc3c(c2O)C(=O)c2c(O)cccc2C3=O)[C@H]1C(=O)OC` (stereo partly specified): the T/C was 114 % of control (endpoint: median survival time, dose: 5.3 mg/kg/injection, schedule: Q07DX002 (iv), vehicle: water, higher = longer survival); 105 % of control (endpoint: median survival time, dose: 8.3 mg/kg/injection, schedule: Q07DX002 (iv), vehicle: water, higher = longer survival); 115 % of control (endpoint: median survival time, dose: 20.0 mg/kg/injection, schedule: Q07DX002 (iv), vehicle: water, higher = longer survival); 67 % of control (endpoint: median tumor weight (est.), dose: 0.75 mg/kg/injection, schedule: Q07DX002 (ip), vehicle: water, higher = larger tumour); 98 % of control (endpoint: median tumor weight (est.), dose: 0.75 mg/kg/injection, schedule: Q07DX003 (ip), vehicle: water, higher = larger tumour); 123 % of control (endpoint: median tumor weight (est.), dose: 1.5 mg/kg/injection, schedule: Q07DX003 (ip), vehicle: water, higher = larger tumour). The T/C by setting is: (endpoint: median tumor weight (est.), dose: 3.0 mg/kg/injection, schedule: Q07DX003 (ip), vehicle: water, higher = larger tumour) 103 % of control; (endpoint: median tumor weight (est.), dose: 6.0 mg/kg/injection, schedule: Q07DX003 (ip), vehicle: water, higher = larger tumour) 75 % of control; (endpoint: median tumor weight (est.), dose: 12.0 mg/kg/injection, schedule: Q07DX003 (ip), vehicle: water, higher = larger tumour) 40 % of control.

With `CC(=O)OCC1(C)NC(=O)c2ccccc2O1` (stereo unspecified), the T/C is, setting by setting: (endpoint: median tumor weight (est.), dose: 56.2 mg/kg/injection, schedule: Q07DX002 (ip), vehicle: saline with Tween-80, higher = larger tumour) 54 % of control; under setting [6], 98 % of control; (endpoint: median tumor weight (est.), dose: 112.5 mg/kg/injection, schedule: Q07DX002 (ip), vehicle: saline with Tween-80, higher = larger tumour) 62 % of control; (endpoint: median tumor weight (est.), dose: 200.0 mg/kg/injection, schedule: Q07DX002 (ip), vehicle: saline with Tween-80, higher = larger tumour) 109 % of control; (endpoint: median tumor weight (est.), dose: 225.0 mg/kg/injection, schedule: Q07DX002 (ip), vehicle: saline with Tween-80, higher = larger tumour) 69 % of control; under setting [4], 153 % of control. The T/C was 48 % of control (endpoint: median tumor weight (est.), dose: 450.0 mg/kg/injection, schedule: Q07DX002 (ip), vehicle: saline with Tween-80, higher = larger tumour) and 48 % of control (endpoint: median tumor weight (est.), dose: 900.0 mg/kg/injection, schedule: Q07DX002 (ip), vehicle: saline with Tween-80, higher = larger tumour).

On to `Nc1ccn(C2OC(CO)C(O)C2O)c(=O)n1` (stereo unspecified), for which the T/C (endpoint: median tumor weight (est.), dose: 100.0 mg/kg/injection, schedule: Q07DX002 (ip), vehicle: saline, higher = larger tumour) is 69 % of control; the T/C (endpoint: median tumor weight (est.), dose: 150.0 mg/kg/injection, schedule: Q07DX002 (ip), vehicle: saline, higher = larger tumour) is 74 % of control; the T/C under setting [5] is 75 % of control and 95 % of control; the T/C (endpoint: median tumor weight (est.), dose: 600.0 mg/kg/injection, schedule: Q07DX002 (ip), vehicle: saline, higher = larger tumour) was 29 % of control and 43 % of control; the T/C (endpoint: median tumor weight (est.), dose: 800.0 mg/kg/injection, schedule: Q07DX002 (ip), vehicle: saline, higher = larger tumour) was 35 % of control; the T/C (endpoint: median tumor weight (est.), dose: 1200.0 mg/kg/injection, schedule: Q07DX002 (ip), vehicle: saline, higher = larger tumour) was 44 % of control and 55 % of control.

With `C=C/C(C)=C/[C@H](C)C(=O)C[C@H](O)CC1CC(=O)NC(=O)C1`, the T/C runs as follows: under setting [1], 111 % of control; under setting [2], 102 % of control; under setting [3], 89 % of control; under setting [6], 102 % of control.

On to `CC(C)CC(=O)NC(C(=O)NC(C(=O)NC(CC(C)C)C(O)CC(=O)NC(C)C(=O)NC(CC(C)C)C(O)CC(=O)O)C(C)C)C(C)C` (stereo unspecified), for which the T/C (endpoint: median tumor weight (est.), dose: 25.0 mg/kg/injection, schedule: Q07DX002 (ip), vehicle: Klucel (hydroxypropylcellulose) (HPC), higher = larger tumour) is 79 % of control; the T/C (endpoint: median tumor weight (est.), dose: 50.0 mg/kg/injection, schedule: Q07DX002 (ip), vehicle: Klucel (hydroxypropylcellulose) (HPC), higher = larger tumour) was 109 % of control; the T/C (endpoint: median tumor weight (est.), dose: 100.0 mg/kg/injection, schedule: Q07DX002 (ip), vehicle: Klucel (hydroxypropylcellulose) (HPC), higher = larger tumour) was 95 % of control; the T/C (endpoint: median tumor weight (est.), dose: 200.0 mg/kg/injection, schedule: Q07DX002 (ip), vehicle: Klucel (hydroxypropylcellulose) (HPC), higher = larger tumour) is 120 % of control.

In the case of `O=C1c2cccc3cc([N+](=O)[O-])cc(c23)C(=O)N1CCN1CCCC1`, the T/C is 107 % of control (endpoint: median tumor weight (est.), dose: 3.13 mg/kg/injection, schedule: Q07DX002 (ip), vehicle: saline with Tween-80, higher = larger tumour); 71 % of control (endpoint: median tumor weight (est.), dose: 6.25 mg/kg/injection, schedule: Q07DX002 (ip), vehicle: saline with Tween-80, higher = larger tumour); 84 % of control under setting [1]; 67 % of control under setting [2].

As to `O=C(CCBr)N1CCN(C(=O)CCBr)CC1`, the T/C runs as follows: (endpoint: median tumor weight (est.), dose: 10.0 mg/kg/injection, schedule: Q07DX002 (ip), vehicle: saline with Tween-80, higher = larger tumour) 90 % of control; (endpoint: median tumor weight (est.), dose: 10.0 mg/kg/injection, schedule: Q07DX002 (ip), vehicle: water, higher = larger tumour) 172 % of control; (endpoint: median tumor weight (est.), dose: 20.0 mg/kg/injection, schedule: Q07DX002 (ip), vehicle: saline with Tween-80, higher = larger tumour) 111 % of control; (endpoint: median tumor weight (est.), dose: 20.0 mg/kg/injection, schedule: Q07DX002 (ip), vehicle: water, higher = larger tumour) 109 % of control; (endpoint: median tumor weight (est.), dose: 40.0 mg/kg/injection, schedule: Q07DX002 (ip), vehicle: saline with Tween-80, higher = larger tumour) 60 % of control; (endpoint: median tumor weight (est.), dose: 40.0 mg/kg/injection, schedule: Q07DX002 (ip), vehicle: water, higher = larger tumour) 157 % of control. Besides, the T/C by setting is: (endpoint: median tumor weight (est.), dose: 80.0 mg/kg/injection, schedule: Q07DX002 (ip), vehicle: saline with Tween-80, higher = larger tumour) 69 % of control and 78 % of control; (endpoint: median tumor weight (est.), dose: 80.0 mg/kg/injection, schedule: Q07DX002 (ip), vehicle: water, higher = larger tumour) 120 % of control; (endpoint: median tumor weight (est.), dose: 160.0 mg/kg/injection, schedule: Q07DX002 (ip), vehicle: water, higher = larger tumour) 91 % of control; (endpoint: median tumor weight (est.), dose: 320.0 mg/kg/injection, schedule: Q07DX002 (ip), vehicle: water, higher = larger tumour) 67 % of control.

With `COc1cc([C@@H]2c3cc4c(cc3[C@@H](OC3OC5CO[C@@H](c6cccs6)OC5C(O)C3O)[C@H]3COC(=O)[C@H]23)OCO4)cc(OC)c1O` (stereo partly specified), the T/C runs as follows: (endpoint: median tumor weight (est.), dose: 1.0 mg/kg/injection, schedule: Q07DX002 (ip), vehicle: suspension in saline, higher = larger tumour) 88 % of control; (endpoint: median tumor weight (est.), dose: 2.0 mg/kg/injection, schedule: Q07DX002 (ip), vehicle: suspension in saline, higher = larger tumour) 113 % of control and 100 % of control; (endpoint: median tumor weight (est.), dose: 4.0 mg/kg/injection, schedule: Q07DX002 (ip), vehicle: suspension in saline, higher = larger tumour) 63 % of control and 75 % of control.

Turning to `COc1cc([C@@H]2c3cc4c(cc3[C@@H](OC3OC5COC(C)OC5C(O)C3O)[C@H]3COC(=O)[C@H]23)OCO4)cc(OC)c1O` (stereo partly specified), the T/C (endpoint: median tumor weight (est.), dose: 16.0 mg/kg/injection, schedule: Q07DX003 (ip), vehicle: clinical formulation, higher = larger tumour) is 68 % of control; the T/C (endpoint: median tumor weight (est.), dose: 32.0 mg/kg/injection, schedule: Q07DX003 (ip), vehicle: clinical formulation, higher = larger tumour) is 83 % of control; the T/C (endpoint: median tumor weight (est.), dose: 64.0 mg/kg/injection, schedule: Q07DX003 (ip), vehicle: clinical formulation, higher = larger tumour) is 27 % of control.

As for `CC(=O)OC1C2OC3C=C(C)CCC3(CO)C(C)(C1O)C21CO1` (stereo unspecified), the T/C (endpoint: median tumor weight (est.), dose: 1.0 mg/kg/injection, schedule: Q07DX002 (ip), vehicle: saline, higher = larger tumour) is 80 % of control.

In the case of `CCN(CC)CC(C)(C)C(=O)/C=C/c1ccccc1`, the T/C runs as follows: (endpoint: median tumor weight (est.), dose: 62.5 mg/kg/injection, schedule: Q07DX002 (ip), vehicle: saline, higher = larger tumour) 102 % of control; (endpoint: median tumor weight (est.), dose: 125.0 mg/kg/injection, schedule: Q07DX002 (ip), vehicle: saline, higher = larger tumour) 52 % of control.
